Molecules are shown by their SMILES.

In experiment [1] the target is T1, human ERK-2 (Mitogen Activated Kinase 1) (Homo sapiens, UniProt P28482).
T1 construct: N-terminal 6-His fusion protein in E. coli and corresponding to aa 8-360; 6-His (N); made in house; host or cells: E. coli
The experiment in a line: ERK-2 Enzymatic Assay. Format: biochemical. As to conditions: 5nM ERK-2 enzyme, 25µM ATP, S/T17 peptide substrate, single assay or mean of multiple assays. As for the experimental part:
Compounds were tested in an enzymatic assay using human ERK-2 (Mitogen Activated Kinase 1), recombinantly expressed as an N-terminal 6-His fusion protein in E. coli and corresponding to aa 8-360. The substrate used was the fluorescent Omnia peptide S/T17 (Invitrogen of Carlsbad, CA; Cat. KNZ1171C). Test compounds were diluted in DMSO in 3-fold serial dilutions at 100x final concentrations. […] The assay was run at ambient temperature in a white 384-well polypropylene plate (Nunc, Inc of Naperville, IL; Cat. 267462) collecting data every 50 seconds for approximately 30 minutes on an Envision plate reader (PerkinElmer, Inc. of Waltham, MA); Excitation 340 nm/Emission 495 nm. The data collected from each well was fit to a straight line and the resulting rates were used to calculate percent of control. Percent of control was plotted against compound concentration and IC50 values were determined using a four-parameter fit. Representative data is in TABLE I and TABLE II. The reported IC50 may be from a single assay or the mean of multiple assays.

The subject of experiment [2] is PMA-stimulated P90RSK(Ser380) phosphorylation. Put plainly: Cellular P90RSK(Ser380) Phosphorylation Assay. Format: cell-based. To be noted: Homo sapiens; HepG2 cells, 1.5 h compound incubation, PMA 100ng/mL 30 min, normalized to GAPDH signal; single assay or mean of multiple assays. How it is done:
Cellular P90RSK(Ser380) Phosphorylation Assay
Inhibition of PMA-stimulated P90RSK(Ser380) phosphorylation was determined by the following in vitro cellular mechanistic assay, which comprises incubating cells with a compound for 1.5 h and quantifying fluorescent pP90RSK(Ser380) signal on fixed cells and normalizing to GAPDH signal.
Materials and Methods: HepG2 cells were obtained from ATCC and grown in DMEM supplemented with 10% fetal bovine serum. Cells were plated in 96-well plates at 35,000 cells/well and allowed to attach overnight at 37 °C/5% CO2. Diluted compounds were then added at a final concentration of 0.5% DMSO. After 1.5 h compound incubation, cells were stimulated with the addition of PMA (phorbol 12-myristate 13-acetate) at a final concentration of 100ng/mL; the PMA stimulation was a 30-min incubation at 37 °C/5% CO2. After the 30-minute PMA stimulation, cells were washed with PBS and fixed in 3.7% formaldehyde in PBS at room temperature for 15-20 min. This was followed by another wash in PBS and then permeabilization in 100% MeOH at room temperature for 10-15 min. Following the permeabilization incubation, cells were washed in PBS/0.05% Tween-20, followed by a block in Odyssey blocking buffer (LI-COR Biosciences) for at least 1 hour. Antibodies to phosphorylated P90RSK(Ser380) (Cell Signaling #9335, rabbit monoclonal) and GAPDH (Fitzgerald 10R-G109a, mouse monoclonal) were added to the cells and incubated overnight at 4 °C. pP90RSK(Ser380) antibody was used at a 1:250 dilution; GAPDH was used at a 1:10,000 dilution. After washing with PBS/0.05% Tween-20, the cells were incubated with fluorescently-labeled secondary antibodies (Anti-rabbit-Alexa Flour680, Invitrogen Cat#A21109; Anti-mouse-IRDye800CW, Rockland Inc. Cat#610-131-121) for 1 h. Both secondary antibodies were used at a 1:1000 dilution. Cells were then washed and analyzed for fluorescence at both wavelengths using the Odyssey Infrared Imaging System (LI-COR Biosciences). Phosphorylated P90RSK(Ser380) signal was normalized to GAPDH signal. Representative data is in TABLE III (infra). The reported IC50 may be from a single assay or the mean of multiple assays.

T1 sequence (P28482 8-360): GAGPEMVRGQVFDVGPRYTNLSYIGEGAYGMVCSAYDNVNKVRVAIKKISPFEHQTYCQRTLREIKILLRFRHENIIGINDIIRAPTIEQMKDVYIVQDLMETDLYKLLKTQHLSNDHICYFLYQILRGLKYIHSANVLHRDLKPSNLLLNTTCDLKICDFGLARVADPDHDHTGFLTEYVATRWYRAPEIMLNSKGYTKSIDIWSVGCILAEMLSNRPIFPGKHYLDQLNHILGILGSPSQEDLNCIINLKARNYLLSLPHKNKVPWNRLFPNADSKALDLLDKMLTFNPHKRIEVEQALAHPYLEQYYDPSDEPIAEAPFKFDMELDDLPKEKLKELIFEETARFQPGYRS

Take `C[C@H](Nc1ncc2ccc(C(=O)N[C@@H](c3ccc(Cl)c(F)c3)[C@@H]3CCCN3)cc2n1)C(F)(F)F` [Compound I-40, 2-((S)-2,2,2-trifluoro-1-methyl-ethylamino)-quinazoline-7-carboxylic acid [(S)-(4-chloro-3-fluoro-phenyl)-(S)-pyrrolidin-2-yl-methyl]-amide]: the IC50 amounted to 7.3 nM in experiment [1] (TABLE I) and 2900 nM in experiment [2].

In the case of `Cn1cc([C@@H](NC(=O)c2ccc3cnc(NC4CCOCC4)nc3c2)c2ccc(OC(F)F)cc2)cn1` [Compound I-41, 2-(tetrahydropyran-4-ylamino)-quinazoline-7-carboxylic acid [(S)-(4-difluoromethoxy-phenyl)-(1-methyl-1H-pyrazol-4-yl)-methyl]-amide], the IC50 in experiment [1] (TABLE I) came out at 0.55 nM; in experiment [2], 115 nM.

On to `Cn1cc([C@@H](NC(=O)c2ccc3cnc(N[C@@H]4CCO[C@H](CO)C4)nc3c2)c2ccc(Cl)c(F)c2)cn1` [Compound I-47, N-((S)-(4-chloro-3-fluorophenyl)(1-methyl-1H-pyrazol-4-yl)methyl)-2-((2S,4R)-2-(hydroxymethyl)tetrahydro-2H-pyran-4-ylamino)quinazoline-7-carboxamide], for which the IC50 in experiment [1] (TABLE I) was 1.4 nM; in experiment [2], 29 nM.

Consider `COc1ccc([C@H](NC(=O)c2cc(F)c3cnc(NCC4CC4)nc3c2)c2cnn(C)c2)cc1F` [Compound I-60, 2-(Cyclopropylmethyl-amino)-5-fluoro-quinazoline-7-carboxylic acid [(S)-(3-fluoro-4-methoxy-phenyl)-(1-methyl-1H-pyrazol-4-yl)-methyl]-amide], for which the values for the IC50 in experiment [1] (TABLE I) and in experiment [2] were 6 nM and 334 nM, respectively.

With `COc1ccc([C@H](NC(=O)c2cc(F)c3cnc(N[C@@H]4CCOC4)nc3c2)c2cnn(C)c2)cc1F` [Compound I-61, 5-Fluoro-N-((S)-(3-fluoro-4-methoxyphenyl)(1-methyl-1H-pyrazol-4-yl)methyl)-2-((R)-tetrahydrofuran-3-ylamino)quinazoline-7-carboxamide], the half-inhibitory concentration (IC50) in experiment [1] (TABLE I) amounted to 2 nM; in experiment [2] it was 66 nM.

Turning to `COc1ccc([C@H](NC(=O)c2cc(F)c3cnc(NC4(C)COC4)nc3c2)c2cnn(C)c2)cc1F` [Compound I-64, 5-Fluoro-2-(3-methyl-oxetan-3-ylamino)-quinazoline-7-carboxylic acid [(S)-(3-fluoro-4-methoxy-phenyl)-(1-methyl-1H-pyrazol-4-yl)-methyl]-amide], the 50% inhibitory concentration (IC50) is 6 nM in experiment [1] (TABLE I) and 978 nM in experiment [2].

Turning to `COc1ccc(C(NC(=O)c2ccc3cnc(NC4CCOCC4)nc3c2)c2cnn(CCO)c2)cc1F` (stereo not drawn) [Compound I-67, N-((3-fluoro-4-methoxyphenyl) (1-(2-hydroxyethyl)-1H-pyrazol-4-yl)methyl)-2-(tetrahydro-2H-pyran-4-ylamino) quinazoline-7-carboxamide], the IC50 was 5 nM in experiment [1] (TABLE I) and 165 nM in experiment [2].

On to `COc1ccc([C@H](NC(=O)c2ccc3cnc(NC4CSC4)nc3c2)c2cnn(C)c2)cc1F` [II-5], for which the IC50 in experiment [1] (TABLE II) stood at 13 nM; in experiment [2], 50.5 nM.

In experiment [2], `COc1ccc([C@H](NC(=O)c2cc(F)c3cnc(N[C@H]4CC[C@H](O)CC4)nc3c2)c2cnn(C)c2)cc1F` [II-13] showed a concentration for half-maximal inhibition (IC50) of 84.4 nM.

In the case of `COc1ccc([C@H](NC(=O)c2ccc3cnc(Nc4cc(C)nn4C)nc3c2)c2cnn(C)c2)cc1F` [II-18], the IC50 in experiment [1] (TABLE II) stood at 2.1 nM; in experiment [2], 364 nM.

On to `Cn1cc([C@@H](NC(=O)c2ccc3cnc(Nc4ccnn4C)nc3c2)c2ccc(Cl)c(F)c2)cn1` [II-25], for which the IC50 is 3.1 nM in experiment [1] (TABLE II) and 19.9 nM in experiment [2].

The compound `COc1ccc([C@H](NC(=O)c2ccc3cnc(NC4CCOCC4)nc3c2)c2ccnn2C)cc1F` [II-28] had an IC50 in experiment [1] (TABLE II) of 3 nM.

Consider `COc1ccc([C@H](NC(=O)c2cc(F)c3cnc(NC4CCOCC4)nc3c2)c2ccnn2C)cc1F` [II-29], for which the concentration for half-maximal inhibition (IC50) in experiment [1] (TABLE II) came to 2.2 nM.

`COc1ccc([C@H](NC(=O)c2ccc3cnc(N[C@H]4C[C@H]5C[C@@H]4CO5)nc3c2)c2cnn(C)c2)cc1F` [II-30] yielded an IC50 in experiment [1] (TABLE II) of 1000 nM.

Compound `COCC(C)Nc1ncc2ccc(C(=O)N[C@@H](c3ccc(OC)c(F)c3)c3cnn(C)c3)cc2n1` (stereo partly drawn) [II-31] yielded an IC50 in experiment [1] (TABLE II) of 15 nM.

With `COc1ccc([C@H](NC(=O)c2cc(F)c3cnc(N[C@H]4C[C@@H](F)C4)nc3c2)c2cnn(C)c2)cc1F` [II-33], the IC50 in experiment [1] (TABLE II) stood at 3.8 nM.

Regarding `COc1ccc(C(NC(=O)c2cc(F)c3cnc(NC4CC5CC4CO5)nc3c2)c2cnn(C)c2)cc1F` (stereo not drawn) [II-34], it took 1000 nM to reach half-maximal inhibition in experiment [1] (TABLE II) (IC50).

On to `COc1ccnc(C(NC(=O)c2cc(F)c3cnc(NC4CCOCC4)nc3c2)c2cnn(C)c2)c1` (stereo not drawn) [II-35], for which the IC50 in experiment [1] (TABLE II) came to 61 nM.

Compound `COc1ccc([C@H](NC(=O)c2ccc3cnc(N[C@H]4CCOC[C@H]4F)nc3c2)c2ccnn2C)cc1F` [II-36] returned an IC50 in experiment [1] (TABLE II) of 3.8 nM.

In the case of `COc1ccc([C@H](NC(=O)c2ccc3cnc(N[C@H]4CCOC[C@@H]4F)nc3c2)c2ccnn2C)cc1F` [II-37], it took 3.6 nM to reach half-maximal inhibition in experiment [1] (TABLE II) (IC50).

`COc1ccc([C@H](NC(=O)c2ccc3cnc(Nc4ccnn4C)nc3c2)c2ccnn2C)cc1F` [II-38]: the results for the IC50 in experiment [1] (TABLE II) and in experiment [2] were 2.9 nM and 38 nM, respectively.

`Cn1nccc1[C@@H](NC(=O)c1ccc2cnc(NC3CCOCC3)nc2c1)c1ccc(Cl)c(F)c1` [II-39] yielded an IC50 in experiment [1] (TABLE II) of 151 nM.

`Cn1nccc1[C@@H](NC(=O)c1ccc2cnc(NC3CCOCC3)nc2c1)c1ccc(C#N)c(Cl)c1` [II-40] came in with a half-maximal inhibitory concentration (IC50) in experiment [1] (TABLE II) of 26 nM.

`Cn1cc([C@@H](NC(=O)c2ccc3cnc(NC4CCOCC4)nc3c2)c2ccc(C(F)(F)F)c(F)c2)cn1` [II-41] gave an IC50 in experiment [1] (TABLE II) of 5.2 nM.

Compound `Cn1nccc1Nc1ncc2ccc(C(=O)NC(c3ccc(Cl)c(F)c3)C3(F)CCNC3)cc2n1` (stereo not drawn) [II-42] registered an IC50 in experiment [1] (TABLE II) of 34.6 nM.

Regarding `Cn1cc(C(NC(=O)c2ccc3cnc(NC4CCOCC4)nc3c2)c2ccc(OC(F)F)cc2)cn1` (stereo not drawn) [II-43], in experiment [1] (TABLE II), the IC50 turned out to be 12.1 nM.

Consider `O=C(N[C@@H](c1ccc(OC(F)(F)F)c(F)c1)[C@H]1CCCNC1)c1ccc2cnc(NC3CCOCC3)nc2c1` [II-44], for which the midpoint of inhibition in experiment [1] (TABLE II), the IC50, lay at 216 nM.

Turning to `O=C(N[C@@H](c1ccc(OC(F)(F)F)c(F)c1)C1CNCCO1)c1ccc2cnc(NC3CCOCC3)nc2c1` (stereo partly drawn) [II-45], the midpoint of inhibition in experiment [1] (TABLE II), the IC50, lay at 6.9 nM.

For the compound `COc1ccc([C@H](NC(=O)c2cc(F)c3cnc(NC4CCOCC4)nc3c2)c2cncn2C)cc1F` [II-46], the IC50 in experiment [1] (TABLE II) amounted to 1.1 nM.

In experiment [1] (TABLE II), `COc1ccc([C@H](NC(=O)c2cc(F)c3cnc(NC4CCOCC4)nc3c2)c2cnco2)cc1F` [II-47] registered an IC50 of 1.3 nM.

As to `COc1ccc([C@H](NC(=O)c2cc(F)c3cnc(NC4CCOCC4)nc3c2)c2cnnn2C)cc1F` [II-48], the half-maximal inhibitory concentration (IC50) in experiment [1] (TABLE II) worked out at 1.4 nM.

Compound `COc1ccc([C@H](NC(=O)c2cc(F)c3cnc(NC4CCOCC4)nc3c2)c2cn(C)cn2)cc1F` [II-49] registered an IC50 in experiment [1] (TABLE II) of 85.5 nM.

In turn, `COc1ccc([C@H](NC(=O)c2cc(F)c3cnc(NC4CCOCC4)nc3c2)c2ncc[nH]2)cc1F` [II-50] returned an IC50 in experiment [1] (TABLE II) of 59.1 nM.

In the case of `COc1ccc([C@H](NC(=O)c2cc(F)c3cnc(NC4CCOCC4)nc3c2)c2c[nH]c(C)n2)cc1F` [II-51], inhibition in experiment [1] (TABLE II) was half-maximal at 164 nM (IC50).

`COc1ccc([C@H](NC(=O)c2cc(F)c3cnc(NC4CCOCC4)nc3c2)c2nccn2C)cc1F` [II-52] came in with a half-inhibitory concentration (IC50) in experiment [1] (TABLE II) of 1.9 nM.

The compound `COc1ccc([C@H](NC(=O)c2cc(F)c3cnc(Nc4ccnn4C)nc3c2)c2cncn2C)cc1F` [II-53] yielded an IC50 in experiment [1] (TABLE II) of 1.5 nM.

Consider `COc1ccc([C@H](NC(=O)c2cc(F)c3cnc(Nc4ccnn4C)nc3c2)c2nccn2C)cc1F` [II-54], for which the midpoint of inhibition in experiment [1] (TABLE II), the IC50, lay at 8.5 nM.

As a reminder, the IC50 is the point on the concentration scale where inhibition reaches its midpoint. High values mean lower potency, low ones higher potency.

The values above are taken from patent publication EP2739618B1, “QUINAZOLINE COMPOUNDS AS SERINE/THREONINE KINASE INHIBITORS” (Array Biopharma, Inc., priority 2011, dated 2013).
